{
  "source": "patent US20060178372A1",
  "about": "“Therapeutic quinoline compounds” (AstraZeneca AB, priority 2001, published 2006)",
  "data": [
    {"system": "not given", "test": "not given", "conditions": "not given", "values": [
      {"compound": "CN1CCN(c2cccc3c2OC(C(=O)Nc2ccc(N4CCOCC4)cc2)CC3)CC1", "note": "(racemic) [Example 75, racemic-8-(4-Methyl-piperazin-1-yl)-chroman-2-carboxylic acid (4-morpholin-4-yl-phenyl)-amide]", "melting point": "215 to 216 °C"},
      {"compound": "CN1CCN(c2cccc3c2OC(C(=O)Nc2ccc(N4CCOCC4)cc2)CC3=O)CC1", "note": "(racemic) [Example 78, racemic-8-(4-methyl-piperazin-1-yl)-4-oxo-chroman-2-carboxylic acid (4-morpholin-4-yl-phenyl)-amide]", "melting point": "215 to 216 °C"},
      {"compound": "CN1CCN(c2cccc3c2OC(C(=O)Nc2ccc(N4CCOCC4)cc2)CC3=O)CC1", "note": "(single isomer, unassigned) [Example 79, 8-(4-Methyl-piperazin-1-yl)-4-oxo-chroman-2-carboxylic acid (4-morpholin-4-yl-phenyl)-amide (faster running isomer)]", "melting point": "216 °C (dec.)"},
      {"compound": "CN1CCN(c2cccc3c2OC(C(=O)Nc2ccc(N4CCOCC4)cc2)CC3=O)CC1", "note": "(single isomer, unassigned) [Example 80, 8-(4-Methyl-piperazin-1-yl)-4-oxo-chroman-2-carboxylic acid (4-morpholin-4-yl-phenyl)-amide (slower running isomer)]", "melting point": "215 °C (dec.)"},
      {"compound": "CN1CCN(c2cccc3c2OC(C(=O)Nc2ccc(N4CCOCC4)cc2)CC3)CC1", "note": "(single isomer, unassigned; (+)) [Example 76, (+)-8-(4-Methyl-piperazin-1-yl)-chroman-2-carboxylic acid (4-morpholin-4-yl-phenyl)-amide]", "melting point": "206 to 207 °C"},
      {"compound": "CN1CCN(c2cccc3c2OC(C(=O)Nc2ccc(N4CCOCC4)cc2)CC3)CC1", "note": "(single isomer, unassigned; (-)) [Example 77, (−)-8-(4-Methyl-piperazin-1-yl)-chroman-2-carboxylic acid (4-morpholin-4-yl-phenyl)-amide]", "melting point": "205.5 to 207 °C"},
      {"compound": "CN1CCN(c2cccc3c(=O)cc(C(=O)Nc4ccc(N5CCOCC5)cc4)oc23)CC1", "note": "[Example 1, 8-(4-methyl-1-piperazinyl)-N-[4-(4-morpholinyl)phenyl]-4-oxo-4H-chromene-2-carboxamide]", "melting point": "217 to 218 °C (dec.)"},
      {"compound": "CN1CCN(c2cccc3c(=O)cc(-c4nc5ccc(N6CCOCC6)cc5o4)oc23)CC1", "note": "[Example 21, 8-(4-Methyl-piperazin-1-yl)-2-(6-morpholin-4-yl-benzooxazol-2-yl)-chromen-4-one]", "melting point": "158.1 to 158.8 °C"},
      {"compound": "CN1CCN(c2cccc3c(=O)cc(C(=O)Nc4ccc(N5CCOCC5)cc4O)oc23)CC1", "note": "[Example 22, 8-(4-Methyl-piperazin-1-yl)-4-oxo-4H-chromene-2-carboxylic acid (2-hydroxy-4-morpholin-4-yl-phenyl)-amide]", "melting point": "248.4 to 249.6 °C"},
      {"compound": "CN1CCN(c2cccc3c(=O)cc(C(=O)N(C)c4ccc(N5CCOCC5)cc4)oc23)CC1", "note": "[Example 25, 8-(4-Methylpiperazin-1-yl)-4-oxo-4H-chromene-2-carboxylic acid methyl-(4-morpholin-4-yl-phenyl)amide]", "melting point": "245 to 246.8 °C"},
      {"compound": "COc1cc(N2CCN(C)CC2)c2oc(C(=O)Nc3ccc(N4CCOCC4)cc3)cc(=O)c2c1", "note": "[Example 31, 6-Methoxy-8-(4-methyl-piperazin-1-yl)-4-oxo-4H-chromene-2-carboxylic acid (4-morpholin-4-yl-phenyl)-amide]", "melting point": "234 to 236 °C"},
      {"compound": "COc1cc(N2CCN(C)CC2)c2oc(C(=O)Nc3ccc(N4CCN(C(=O)CCO)CC4)cc3)cc(=O)c2c1", "note": "[Example 68, 6-Methoxy-8-(4-methyl-piperazin-1-yl)-4-oxo-4H-chromene-2-carboxylic acid {4-[4-(3-hydroxy-propanoyl)-piperazin-1-yl]-phenyl}-amide]", "melting point": "195 to 197 °C"},
      {"compound": "CCS(=O)(=O)N1CCN(c2ccc(NC(=O)c3cc(=O)c4cc(F)cc(N5CCN(C)CC5)c4o3)cc2)CC1", "note": "[Example 71, 6-Fluoro-8-(4-methyl-piperazin-1-yl)-4-oxo-4H-chromene-2-carboxylic acid [4-(4-ethane sulfonyl-piperazin-1-yl)-phenyl]-amide]", "melting point": "233 to 234 °C"},
      {"compound": "CN1CCN(c2cc(F)cc3c(=O)cc(C(=O)Nc4ccc(N5CCN(C(=O)CCO)CC5)cc4)oc23)CC1", "note": "[Example 73, 6-Fluoro-8-(4-methyl-piperazin-1-yl)-4-oxo-4H-chromene-2-carboxylic acid {4-[4-(3-hydroxy-propanoyl)-piperazin-1-yl]-phenyl}-amide]", "melting point": "195 to 199 °C"},
      {"compound": "CCNC(=O)N1CCN(c2ccc(NC(=O)c3cc(=O)c4cc(F)cc(N5CCN(C)CC5)c4o3)cc2)CC1", "note": "[Example 81, 4-[4-({1-[6-Fluoro-8-(4-methyl-piperazin-1-yl)-4-oxo-4H-chromen-2-yl]-methanoyl}-amino)-phenyl]-piperazine-1-carboxylic acid ethylamide]", "melting point": "236 to 238 °C"}
    ]},
    {"system": "guinea pigs", "test": "learned helplessness test for antidepressant/antianxiety activity", "format": "in vivo", "conditions": "guinea pig", "excerpt": "The utility of the compounds for example to treat depression may be shown via a learned helplessness test in guinea pigs, which is used extensively as correlative to antidepressant activity in humans. The learned helplessness test may be carried out as follows: Seventy male Hartley guinea pigs, each weighing about 350-425 gm are fed ad lib, and are housed under a 12-hour light/dark cycle. The procedure consists of two phases: The induction phase and the avoidance training phase. In the induction phase, subjects are placed into standard shuttle cages (20 L×16 W×21 centimeters H) which are fitted with a grid floor. Electrical stimulation (1.25 mA, 10 sec duration) is delivered to the floor of the cage every 90-sec during 1 hour daily sessions. Subjects have no opportunity to escape or to avoid shocks. Induction is conducted for 2 consecutive days.\nIn avoidance training, testing is also conducted in the shuttle cages, except that the subjects are not returned to the same chamber in which induction had occurred. Additionally, all cages are fitted with a partition with an arch in the center of the cage, through which animals can pass between the left and right halves of the cage. The procedure employed is a standard shuttle avoidance procedure in which a compound, conditioned stimulus (a 10-sec presentation of a tone and turning on of a lamp on the side of the cage that the guinea pig was occupying) serves to indicate presentation of electrical current to the floor of the cage. Shock is presented for a 5 sec period, 5 sec after initiation of the conditioned stimulus. Entry into the opposite side of the shuttle cage via the arched partition prior to shock onset results in the end of the trial (avoidance response). If shock is delivered, entry into the opposite side of the cage results in termination of the shock and CS (escape). Reversal of learned helplessness in the induction subjects correlates to antidepressant activity of the test compound.\nAvoidance training, 45-min in duration, is conducted on 2 consecutive days, beginning 48 hr after the final induction session. Seventy subjects are assigned to 1 of 6 groups of 11-12 animals. The groups are as follows:\n1) No induction group. The subjects are placed into the shuttle cages but are not given inescapable shock, the animals are subsequently trained in the avoidance procedure and the vehicle is administered;\n2) Induction vehicle control group;\n3) Imipramine 17.8 mg/kg;\n5) 1 mg/kg compounds; and\nGroups 2-6 are given induction and avoidance training sessions. Injections are administered immediately following induction sessions and 1 hour prior to avoidance training sessions. A second injection is administered 7-8 hours following the first injection, for a total of 9 injections administered over 5 days. […]", "values": [
      {"compound": "COc1cc(N2CCN(C)CC2)c2oc(C(=O)Nc3ccc(N4CCOCC4)cc3)cc(=O)c2c1", "note": "[Example 31, 6-Methoxy-8-(4-methyl-piperazin-1-yl)-4-oxo-4H-chromene-2-carboxylic acid (4-morpholin-4-yl-phenyl)-amide]", "activity in the learned helplessness assay": "demonstrate activity"},
      {"compound": "CCC(=O)N1CCN(c2ccc(NC(=O)c3cc(=O)c4cc(OC)cc(N5CCN(C)CC5)c4o3)cc2)CC1", "note": "[Example 44, 6-Methoxy-8-(4-methyl-piperazin-1-yl)-4-oxo-4H-chromene-2-carboxylic acid [4-(4-propionyl-piperazin-1-yl)-phenyl]-amide]", "activity in the learned helplessness assay": "demonstrate activity"},
      {"compound": "CCS(=O)(=O)N1CCN(c2ccc(NC(=O)c3cc(=O)c4cc(F)cc(N5CCN(C)CC5)c4o3)cc2)CC1", "note": "[Example 71, 6-Fluoro-8-(4-methyl-piperazin-1-yl)-4-oxo-4H-chromene-2-carboxylic acid [4-(4-ethane sulfonyl-piperazin-1-yl)-phenyl]-amide]", "activity in the learned helplessness assay": "demonstrate activity"},
      {"compound": "CCC(=O)N1CCN(c2ccc(NC(=O)c3cc(=O)c4cc(F)cc(N5CCN(C)CC5)c4o3)cc2)CC1", "note": "[Example 72, 6-Fluoro-8-(4-methyl-piperazin-1-yl)-4-oxo-4H-chromene-2-carboxylic acid [4-(4-propionyl-piperazin-1-yl)-phenyl]-amide]", "activity in the learned helplessness assay": "demonstrate activity"}
    ]}
  ]
}
